Reference: patent US11452303B2, “Methods for feeding sows and for improving the health of young piglets” (PURINA ANIMAL NUTRITION LLC, priority 2003, dated 2022)
“And” between values parts separate entries of the source, which are not always exact repeats. Equal entries are not always repeated. Marks after values point to notes of the source that are not given here.

Experiments:
nursing piglets = experiment: Litter performance: number of nursing piglets and piglet mortality in litters of lactating sows fed sorbitol; type: in vivo, swine
Protocol: (§1) In this example, sixty-two (62) lactating sows were subjected to one of three different feeding trials that each began shortly (within 48 hours) after the lactating sows gave birth to piglets (i.e.: shortly after farrowing) and extended to the day the different piglets were wearied from the respective sows. The purpose of this example was to evaluate the effect of feeding lactating sows varying amounts of sugar alcohol, or no sugar alcohol, on subsequent piglet litter performance parameters, such as mortality prior to weaning and litter weight gain during the pre-weaning period. Sorbitol was used as the sugar alcohol in this example.
Immediately after farrowing, twenty sows were randomly assigned to the Control, twenty-one sows were randomly assigned to Trial A, and twenty-one sows were randomly assigned to Trial B. Sow assignment did take into account parity (number of litters per sow) to artificially balance parity across the Control, Trial A, and Trial B. The different sows of the Control, Trial A, and Trial B had parities ranging from one to more than two. Additionally, litter size was equalized between the different sows of the Control, Trial A, and Trial B within forty-eight hours after farrowing to assure that all sows, whether assigned to the Control, Trial A or Trial B, had the same, or about the same, number of nursing piglets. The reason for waiting forty-eight hours before cross-fostering in this fashion was to assure each piglet received colostrum from their original dam.
(§2) In Trial A, each of the lactating sows received the control feed plus about twenty-six grams of sorbitol per day. In Trial B, each of the lactating sows received the control feed plus about fifty-two grams of sorbitol per day.
The lactating sows of both Trial A and Trial B received the same daily amount of control feed that was fed to the lactating sows of the Control with the exception that two pounds of the control feed provided daily to the lactating sows of both Trial A and Trial B were replaced with two pounds of a sorbitol-coated control feed (hereinafter referred to as “top-dressed control feed”). To create the top-dressed control feed, liquid sorbitol was heated to a temperature ranging from about 100° F. and about 120° F. The heated liquid sorbitol was then sprayed over a batch of about three hundred to four hundred pounds of the control feed and thoroughly mixed to form the top-dressed control feed. Following mixing, the top-dressed control feed was divided and separately bagged in two pound increments. An appropriate ratio of the liquid sorbitol to the control feed was selected for the top-dressed control feed destined for the Trial A lactating sows to assure that each two pound allotment of the control feed destined for the Trial A lactating sows included about twenty-six grams of sorbitol. Likewise, an appropriate ratio of the liquid sorbitol to the control feed was selected for the top-dressed control feed destined for the Trial B lactating sows to assure that each two pound allotment of the top-dressed control feed destined for the Trial B lactating sows included about fifty-two grams of sorbitol.
During the feeding trial of this example, the top dressed control feed was applied three times daily to the balance of the control feed being provided individually at that feeding to the individual lactating sows of Trial A and Trial B. Approximately one-third of the top-dressed control feed was provided to the sows in the morning feeding, approximately one-third of the top dressed control feed was provided to the lactating sows in the noon feeding, and the remaining approximate one-third of the top-dressed control feed was provided to the sows in the afternoon feeding. The twenty-one sows of Trial A each received a total of about two pounds of the top-dressed control feed containing about 26 grams of sorbitol per day. […]

[1] = Litter performance: total litter live weight and mean individual piglet weight; type: in vivo, swine
Protocol: In each of the Examples provided below, each piglet was weighed two days after birth, fourteen days after birth, and again at weaning. All data that is provided in Tables 4-9 below for the lactating sows is based upon individual data for each lactating sow, then-present, as least square means of the particular data over all lactating sows present in the test at the time the particular data was recorded. All data that is provided in Tables 4-9 below for the piglets is based upon data for each litter of piglets, then-present, as least square means of the particular data over all piglets of the litter present in the test at the time the particular data was recorded. Data for parameters presented in Tables 4-9 was analyzed using the general linear model (GLM) statistical procedure of SAS™ statistical analysis software for a randomized complete block design that included both the particular Iced regimen and the week of the test period in the model statement. The SAS™ statistical analysis software is available from SAS Institute, Inc. of Cary, N.C. Additionally, all data was analyzed to determine the mean of the data for each variable under consideration during the collection period for the particular data.
as §1, §2
Additionally, the collective body weights of the piglets assigned to each lactating sow of the three different trials were measured and recorded on day two post-farrowing (about forty-eight hours after farrowing), on day fourteen post-farrowing (fourteen days after farrowing), and on the day the piglets were weaned. The mean body weight values for each individual piglet of the three different trials were derived for each piglet individually from the weight data recorded for each piglet litter by dividing the collective litter weight determined for a particular litter by the total number of piglets then-present in the litter to attain the mean individual piglet weights on day two post-farrowing (about forty-eight hours after farrowing), on day fourteen post-farrowing (fourteen days after farrowing), and on the day the piglets were weaned.
In this example, the data from Example 1 was analyzed to remove data attributable to sows with a parity of only one. Parity refers to the number of litters a sow has previously given birth to during its life. Gilts or first-parity sows typically consume approximately fifteen to twenty percent less feed during lactation and also typically produce less milk than sows with parities greater than one. The litters of parity one sows also tend to have lower weaning weights and more health problems than the litters of sows with parities greater than one. The purpose of looking at the Example 1 data, as re-analyzed to remove the effect of parity one data, is to determine the influence of natural differences in feed intake and litter performance of parity one sows on the data presented in Example 1 above. Removing the data contributed by the […] parity one sows in Example 1, left the Control with fourteen sows of parity two or higher, left Trial A with sixteen sows of parity two or higher, and left Trial B with sixteen sows of parity two or higher. […]

[2] = Trial A, 26 grams sorbitol per day, Parity ≥ 1, At Weaning
[3] = Trial A, 26 grams sorbitol per day, Parity ≥ 1, Day 14
[4] = Trial A, 26 grams sorbitol per day, Parity ≥ 1, day one post-farrowing to weaning
[5] = Trial A, 26 grams sorbitol per day, Parity ≥ 1, day one to day fourteen post-farrowing
[6] = Trial A, 26 grams sorbitol per day, Parity ≥2, At Weaning
[7] = Trial A, 26 grams sorbitol per day, Parity ≥2, Day 2
[8] = Trial A, 26 grams sorbitol per day, Parity ≥2, Day 14
[9] = Trial A, 26 grams sorbitol per day, Parity ≥ 2, day one post-farrowing to weaning
[10] = Trial A, 26 grams sorbitol per day, Parity ≥ 2, day one to day fourteen post-farrowing
[11] = Trial B, 52 grams sorbitol per day, Parity ≥ 1, At Weaning
[12] = Trial B, 52 grams sorbitol per day, Parity ≥ 1, Day 14
[13] = Trial B, 52 grams sorbitol per day, Parity ≥ 1, day fourteen post-farrowing to weaning
[14] = Trial B, 52 grams sorbitol per day, Parity ≥ 1, day one post-farrowing to weaning
[15] = Trial B, 52 grams sorbitol per day, Parity ≥ 1, day one to day fourteen post-farrowing
[16] = Trial B, 52 grams sorbitol per day, Parity ≥2, At Weaning
[17] = Trial B, 52 grams sorbitol per day, Parity ≥2, Day 2
[18] = Trial B, 52 grams sorbitol per day, Parity ≥2, Day 14
[19] = Trial B, 52 grams sorbitol per day, Parity ≥ 2, day one post-farrowing to weaning
[20] = Trial B, 52 grams sorbitol per day, Parity ≥ 2, day one to day fourteen post-farrowing
[21] = Trial A, 26 grams sorbitol per day, Parity ≥ 1, Day 2
[22] = Trial B, 52 grams sorbitol per day, Parity ≥ 1, Day 2

## OC[C@@H](O)[C@@H](O)[C@H](O)[C@@H](O)CO [sorbitol]
Nursing piglets; Trial A, 26 grams sorbitol per day to sows, Parity ≥ 1, Day 2
  Number of Nursing Piglets: 10.57
Nursing piglets; [2]
  Number of Nursing Piglets: 9.95
Nursing piglets; Trial A, 26 grams sorbitol per day, Parity ≥ 1, Day 1 to Day 14
  Percentage Piglet Mortality: 3.99% and 3.99^c percent
Nursing piglets; Trial A, 26 grams sorbitol per day, Parity ≥ 1, Day 1 to Weaning
  Percentage Piglet Mortality: 5.69% and 5.69^c percent
Nursing piglets; [3]
  Number of Nursing Piglets: 10.14
Nursing piglets; Trial A, 26 grams sorbitol per day, Parity ≥ 1, Day 14 to weaning
  Percentage Piglet Mortality: 1.74^d percent
Nursing piglets; [4]
  piglet mortality drop versus Control: 47.07%
  piglet mortality percentage drop versus Control: 5.06 percentage points
Nursing piglets; [5]
  piglet mortality drop versus Control: 54.97%
  piglet mortality percentage drop versus Control: 4.87 percentage points
Nursing piglets; [6]
  Number of Nursing Piglets: 10.01
Nursing piglets; Trial A, 26 grams sorbitol per day, Parity ≥2, Day 1 to Day 14
  Percentage Piglet Mortality: 3.52% and 3.52^c percent
Nursing piglets; Trial A, 26 grams sorbitol per day, Parity ≥2, Day 1 to Weaning
  Percentage Piglet Mortality: 4.69% and 4.69^c percent
Nursing piglets; [7]
  Number of Nursing Piglets: 10.51
Nursing piglets; [8]
  Number of Nursing Piglets: 10.14
Nursing piglets; Trial A, 26 grams sorbitol per day, Parity ≥2, Day 14 to weaning
  Percentage Piglet Mortality: 1.23%
Nursing piglets; [9]
  piglet mortality drop versus Control: 63.27%
  piglet mortality percentage drop versus Control: 8.08 percentage points
Nursing piglets; [10]
  piglet mortality drop versus Control: 67.20%
  piglet mortality percentage drop versus Control: 7.21 percentage points
Nursing piglets; Trial B, 52 grams sorbitol per day to sows, Parity ≥ 1, Day 2
  Number of Nursing Piglets: 10.50
Nursing piglets; [11]
  Number of Nursing Piglets: 10.03
Nursing piglets; Trial B, 52 grams sorbitol per day, Parity ≥ 1, Day 1 to Day 14
  Percentage Piglet Mortality: 4.61% and 4.61^e percent
Nursing piglets; Trial B, 52 grams sorbitol per day, Parity ≥ 1, Day 1 to Weaning
  Percentage Piglet Mortality: 4.60% and 4.60^c percent
Nursing piglets; [12]
  Number of Nursing Piglets: 10.0
Nursing piglets; Trial B, 52 grams sorbitol per day, Parity ≥ 1, Day 14 to weaning
  Percentage Piglet Mortality: 0.00% and 0.00^e percent
Nursing piglets; [13]
  piglet mortality drop versus Control: 100%
  piglet mortality percentage drop versus Control: 2.09 percentage points
Nursing piglets; [14]
  piglet mortality drop versus Control: 57.21%
  piglet mortality percentage drop versus Control: 6.15 percentage points
Nursing piglets; [15]
  piglet mortality drop versus Control: 47.97%
  piglet mortality percentage drop versus Control: 4.25 percentage points
Nursing piglets; [16]
  Number of Nursing Piglets: 10.02
Nursing piglets; Trial B, 52 grams sorbitol per day, Parity ≥2, Day 1 to Day 14
  Percentage Piglet Mortality: 5.68% and 5.68^c percent
Nursing piglets; Trial B, 52 grams sorbitol per day, Parity ≥2, Day 1 to Weaning
  Percentage Piglet Mortality: 5.71% and 5.71^c percent
Nursing piglets; [17]
  Number of Nursing Piglets: 10.62
Nursing piglets; [18]
  Number of Nursing Piglets: 10.02
Nursing piglets; Trial B, 52 grams sorbitol per day, Parity ≥2, Day 14 to weaning
  Percentage Piglet Mortality: 0.00%
Nursing piglets; [19]
  piglet mortality drop versus Control: 55.29%
  piglet mortality percentage drop versus Control: 7.06 percentage points
Nursing piglets; [20]
  piglet mortality drop versus Control: 47.06%
  piglet mortality percentage drop versus Control: 5.05 percentage points
[1]; [2]
  Mean Weight of Individual Piglets: 14.80 pounds
  Total Live Weight of Litter: 147.53^de pounds
[1]; [21]
  Mean Weight of Individual Piglets: 4.11 pounds
  Total Live Weight of Litter: 43.29 pounds
[1]; [3]
  Mean Weight of Individual Piglets: 10.59 pounds
  Total Live Weight of Litter: 107.85 pounds
[1]; [6]
  Mean Weight of Individual Piglets: 15.02 pounds
  Total Live Weight of Litter: 150.42^bc pounds
[1]; [7]
  Mean Weight of Individual Piglets: 4.14 pounds
  Total Live Weight of Litter: 43.37 pounds
[1]; [8]
  Mean Weight of Individual Piglets: 10.82 pounds
  Total Live Weight of Litter: 109.76 pounds
[1]; [11]
  Mean Weight of Individual Piglets: 15.55 pounds
  Total Live Weight of Litter: 154.81 pounds and 154.81^e pounds
[1]; [22]
  Mean Weight of Individual Piglets: 3.90 pounds
  Total Live Weight of Litter: 41.17 pounds
[1]; [12]
  Mean Weight of Individual Piglets: 10.39 pounds
  Total Live Weight of Litter: 104.39 pounds
[1]; [16]
  Mean Weight of Individual Piglets: 16.03 pounds
  Total Live Weight of Litter: 159.86 pounds and 159.86^c pounds
[1]; [17]
  Mean Weight of Individual Piglets: 4.18 pounds
  Total Live Weight of Litter: 44.48 pounds
[1]; [18]
  Mean Weight of Individual Piglets: 10.87 pounds
  Total Live Weight of Litter: 109.25 pounds
